Measured values published in patent US20160235752A1, “COMPOSITIONS, METHODS OF USE, AND METHODS OF TREATMENT” (THE UNIVERSITY OF NEW ORLEANS, priority 2013, published 2016).
≈ marks a conversion by molar mass, not a printed value.

How the values were obtained:
[1] = system: Candida albicans (ATCC no. 10231); assay: MIC determination by broth microdilution (NCCLS), visual scoring; type: cell-based; details: for MIC80: Candida albicans, ATCC10231, read-out: MIC80 C. albicans
Procedure, shortened: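 NCCLS broth microdilution in RPMI 1640 with 10 mM HEPES, final compound 0.5–128 μg/mL, DMSO ≤1%. Inoculum from 0.5 McFarland stock diluted 1:50; incubated 35 °C for 48–72 h. MIC scored visually as lowest concentration giving ~80% growth reduction versus drug-free wells.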

[2] = system: Candida glabrata (ATCC no. 48435); assay: as above; type: cell-based; details: for MIC80: Nakaseomyces glabratus, ATCC48435, read-out: MIC80 C. glabrata
Description: The antifungal activity of the 2,4,6-pyrimidinetrione analogs shown in Schemes 2-6 were evaluated in vitro using Candida albicans (ATCC no. 10231) and Candida glabrata (ATCC no 48435). All assays were done in accordance with NCCLS reference documents^29. The results of these screenings are summarized in Tables 1-9 as the minimal inhibitory concentrations that inhibited more than 80% fungal growth as compared to the positive controls in 1% DMSO and RPMI media. All MIC screens were done using a visual scoring method as opposed to spectroscopic methods of analysis, due to the physical properties of many of the compounds altering their absorbance spectra relative to the positive, negative and drug controls.
None of the compounds tested over the course of these studies were soluble in water and DMSO was used to dilute each compound tested. Master stock concentrations of all tested compounds were prepared to ensure that the maximum final concentration of DMSO was 1% or less. Subsequent 2-fold serial dilutions were made using sterile water to a final concentration of 1280-5.00 μg/ml. A final 10-fold dilution of each drug was made by aliquotting 0.1 mL of each drug dilution into 0.9 mL of fungal suspension in RPMI 1640 media with 10 mM HEPES buffer added (see methodology below), giving final concentrations tested in the range of 128-0.5 μg/ml.
Antifungal susceptibility studies and minimal inhibitory concentrations (MIC) values for Candida albicans (ATCC no. 10231) and Candida glabrata (ATCC no. 48435) were determined by the broth microdilution technique in accordance with NCCLS reference documents. Microdilution panels ranged from 0.5 to 128 μg/mL. All organisms were subcultured on Sabouraud agar and passaged to ensure purity and viability. The initiating inocula were prepared by picking 5-7 isolated colonies ˜1 mm in diameter from freshly prepared YM agar plates. Colonies were resuspended in sterile water, vortexed and the cell density was adjusted spectrophotometrically to the transmittance of a 0.5 McFarland standard at a wavelength of 530 nm, to yield a stock suspension of 1×10^6-5×10^6 cells/mL. The stock was allowed to hydrate for 30 minutes at room temperature. A working suspension was then made by diluting the stock 1:50 with RPMI 1640 media containing HEPES buffer. The working suspension was used for all assays. The plates were incubated at 35° C. for 48-72 hours in a humid atmosphere. Growth was scored visually. MIC values are defined as the lowest concentration of agent that prevents any discernible growth, ˜80% reduction of growth, as compared with drug-free control wells. All assays were run in parallel using either fluconazole or amphotericin B at the NCCLS recommended concentrations^29 as a drug control (Sigma-Aldrich).

[3] = Table 2, 5-Arylidene-2,4,6-pyrimidinetriones
[4] = Table 8, N-Acylhydrazones of 5-Acylpyrimidinetriones
[5] = Table 5, Schiff Bases of 5-acylpyrimidinetriones
[6] = Table 3, 5-Alkylated Pyrimidinetriones
[7] = Table 1, 5-Acyl-2,4,6-pyrimidinetriones, >80% growth inhibition, RPMI, 1% DMSO
[8] = Table 7, Phenylhydrazones of 5-Acylpyrimidinetriones

## O=C1NC(=O)C(=Cc2ccco2)C(=O)N1 [BA56]
[1]; [3]
  MIC80 C. albicans: — (none of the 5-acyl-2,4,6-pyrimidinetriones, 5-alkylated pyrimidinetriones or the 5,5-dialkylated pyrimidinetriones showed antifungal activity through 125 μg/mL)
[2]; [3]
  MIC80 C. glabrata: — (none of the 5-acyl-2,4,6-pyrimidinetriones, 5-alkylated pyrimidinetriones or the 5,5-dialkylated pyrimidinetriones showed antifungal activity through 125 μg/mL)

## COC(=O)NN=C(c1ccc([N+](=O)[O-])cc1)C1C(=O)NC(=O)NC1=O [BA37]
[1]; [4]
  MIC80 C. albicans: — (none of the 5-acyl-2,4,6-pyrimidinetriones, 5-alkylated pyrimidinetriones or the 5,5-dialkylated pyrimidinetriones showed antifungal activity through 125 μg/mL)
[2]; [4]
  MIC80 C. glabrata: — (none of the 5-acyl-2,4,6-pyrimidinetriones, 5-alkylated pyrimidinetriones or the 5,5-dialkylated pyrimidinetriones showed antifungal activity through 125 μg/mL)

## CN1C(=O)C(/C=N/Nc2ccccc2)C(=O)N(C)C1=O [BA73, 1,3-dimethyl-5-[(E)-(2-phenylhydrazinylidene)methyl]pyrimidine-2,4,6-trione]
[1]
  MIC80: 4 µg/mL (≈ 14.6 µM)
[2]
  MIC80: 2 µg/mL (≈ 7.29 µM)

## COc1ccc(C(=NCCCCCC(=O)O)C2C(=O)NC(=O)NC2=O)cc1 [BA35]
[1]; [5]
  MIC80 C. albicans: — (none of the 5-acyl-2,4,6-pyrimidinetriones, 5-alkylated pyrimidinetriones or the 5,5-dialkylated pyrimidinetriones showed antifungal activity through 125 μg/mL)
[2]; [5]
  MIC80 C. glabrata: — (none of the 5-acyl-2,4,6-pyrimidinetriones, 5-alkylated pyrimidinetriones or the 5,5-dialkylated pyrimidinetriones showed antifungal activity through 125 μg/mL)

## COc1ccc(C=C2C(=O)N(C)C(=O)N(C)C2=O)c(OC)c1OC [BA51]
[1]; [3]
  MIC80 C. albicans: — (none of the 5-acyl-2,4,6-pyrimidinetriones, 5-alkylated pyrimidinetriones or the 5,5-dialkylated pyrimidinetriones showed antifungal activity through 125 μg/mL)
[2]; [3]
  MIC80 C. glabrata: — (none of the 5-acyl-2,4,6-pyrimidinetriones, 5-alkylated pyrimidinetriones or the 5,5-dialkylated pyrimidinetriones showed antifungal activity through 125 μg/mL)

## O=C1NC(=O)N(c2ccccc2)C(=O)C1CC1CCC(O)CC1 (stereo not drawn) [BA65]
[1]; [6]
  MIC80 C. albicans: — (none of the 5-acyl-2,4,6-pyrimidinetriones, 5-alkylated pyrimidinetriones or the 5,5-dialkylated pyrimidinetriones showed antifungal activity through 125 μg/mL)
[2]; [6]
  MIC80 C. glabrata: — (none of the 5-acyl-2,4,6-pyrimidinetriones, 5-alkylated pyrimidinetriones or the 5,5-dialkylated pyrimidinetriones showed antifungal activity through 125 μg/mL)

## O=C1NC(=O)C(=Cc2cccc3ccccc23)C(=O)N1 [BA41]
[1]; [3]
  MIC80 C. albicans: 125 µg/mL (≈ 469 µM)
[2]; [3]
  MIC80 C. glabrata: — (none of the 5-acyl-2,4,6-pyrimidinetriones, 5-alkylated pyrimidinetriones or the 5,5-dialkylated pyrimidinetriones showed antifungal activity through 125 μg/mL)

## O=C1NC(=O)C(C=Nc2ccccc2O)C(=O)N1 [BA93]
[1]; Schiff base derivatives, Table 5
  inhibitory activity of Candida albicans: showed inhibitory activity
[1]; Table 5, values marked *: compound displayed MIC with <50% inhibition
  MIC80 C. albicans: 8* μg/mL
[2]; [5]
  MIC80 C. glabrata: — (none of the 5-acyl-2,4,6-pyrimidinetriones, 5-alkylated pyrimidinetriones or the 5,5-dialkylated pyrimidinetriones showed antifungal activity through 125 μg/mL)

## CN1C(=O)C(C(=O)c2ccc(O)cc2)C(=O)N(C)C1=O [BA11]
[1]; [7]
  MIC80 C. albicans: — (none of the 5-acyl-2,4,6-pyrimidinetriones, 5-alkylated pyrimidinetriones or the 5,5-dialkylated pyrimidinetriones showed antifungal activity through 125 μg/mL)
[2]; [7]
  MIC80 C. glabrata: — (none of the 5-acyl-2,4,6-pyrimidinetriones, 5-alkylated pyrimidinetriones or the 5,5-dialkylated pyrimidinetriones showed antifungal activity through 125 μg/mL)

## CC(=Nc1ccc(O)cc1)C1C(=O)N(C)C(=O)N(C)C1=O [BA80]
[1]; [5]
  MIC80 C. albicans: — (none of the 5-acyl-2,4,6-pyrimidinetriones, 5-alkylated pyrimidinetriones or the 5,5-dialkylated pyrimidinetriones showed antifungal activity through 125 μg/mL)
[2]; [5]
  MIC80 C. glabrata: — (none of the 5-acyl-2,4,6-pyrimidinetriones, 5-alkylated pyrimidinetriones or the 5,5-dialkylated pyrimidinetriones showed antifungal activity through 125 μg/mL)

## O=C1NC(=O)C(C=Nc2ccncc2)C(=O)N1 [BA83]
[1]; [5]
  MIC80 C. albicans: — (none of the 5-acyl-2,4,6-pyrimidinetriones, 5-alkylated pyrimidinetriones or the 5,5-dialkylated pyrimidinetriones showed antifungal activity through 125 μg/mL)
[2]; [5]
  MIC80 C. glabrata: — (none of the 5-acyl-2,4,6-pyrimidinetriones, 5-alkylated pyrimidinetriones or the 5,5-dialkylated pyrimidinetriones showed antifungal activity through 125 μg/mL)

## O=C1NC(=O)C(C(=O)c2ccccc2)C(=O)N1 [BA1, 5-benzoyl-pyrimidine-2,4,6-trione]
[1]
  MIC80: > 125 µg/mL
[2]
  MIC80: > 125 µg/mL

## COc1ccc(C(=O)C2C(=O)N(C)C(=O)N(C)C2=O)cc1 [BA15]
[1]; [7]
  MIC80 C. albicans: — (none of the 5-acyl-2,4,6-pyrimidinetriones, 5-alkylated pyrimidinetriones or the 5,5-dialkylated pyrimidinetriones showed antifungal activity through 125 μg/mL)
[2]; [7]
  MIC80 C. glabrata: — (none of the 5-acyl-2,4,6-pyrimidinetriones, 5-alkylated pyrimidinetriones or the 5,5-dialkylated pyrimidinetriones showed antifungal activity through 125 μg/mL)

## O=C1NC(=O)N(c2ccccc2)C(=O)C1=Cc1ccc(O)cc1 [BA46]
[1]; [3]
  MIC80 C. albicans: — (none of the 5-acyl-2,4,6-pyrimidinetriones, 5-alkylated pyrimidinetriones or the 5,5-dialkylated pyrimidinetriones showed antifungal activity through 125 μg/mL)
[2]; [3]
  MIC80 C. glabrata: — (none of the 5-acyl-2,4,6-pyrimidinetriones, 5-alkylated pyrimidinetriones or the 5,5-dialkylated pyrimidinetriones showed antifungal activity through 125 μg/mL)

## O=CC1C(=O)NC(=O)NC1=O [BA18]
[1]; [7]
  MIC80 C. albicans: — (none of the 5-acyl-2,4,6-pyrimidinetriones, 5-alkylated pyrimidinetriones or the 5,5-dialkylated pyrimidinetriones showed antifungal activity through 125 μg/mL)
[2]; [7]
  MIC80 C. glabrata: — (none of the 5-acyl-2,4,6-pyrimidinetriones, 5-alkylated pyrimidinetriones or the 5,5-dialkylated pyrimidinetriones showed antifungal activity through 125 μg/mL)

## CN1C(=O)C(C(=NNc2ccc(C(=O)O)cc2)c2ccccc2)C(=O)N(C)C1=O [BA33]
[1]; [8]
  MIC80 C. albicans: — (none of the 5-acyl-2,4,6-pyrimidinetriones, 5-alkylated pyrimidinetriones or the 5,5-dialkylated pyrimidinetriones showed antifungal activity through 125 μg/mL)
[2]; [8]
  MIC80 C. glabrata: — (none of the 5-acyl-2,4,6-pyrimidinetriones, 5-alkylated pyrimidinetriones or the 5,5-dialkylated pyrimidinetriones showed antifungal activity through 125 μg/mL)

## O=C1NC(=O)C(CCCc2ccccc2)C(=O)N1 [BA66]
[1]; [6]
  MIC80 C. albicans: — (none of the 5-acyl-2,4,6-pyrimidinetriones, 5-alkylated pyrimidinetriones or the 5,5-dialkylated pyrimidinetriones showed antifungal activity through 125 μg/mL)
[2]; [6]
  MIC80 C. glabrata: — (none of the 5-acyl-2,4,6-pyrimidinetriones, 5-alkylated pyrimidinetriones or the 5,5-dialkylated pyrimidinetriones showed antifungal activity through 125 μg/mL)

## CCCCN1C(=O)NC(=O)C(C(=NNc2ccc([N+](=O)[O-])cc2[N+](=O)[O-])c2ccccc2)C1=O (stereo not drawn) [BA31]
[1]; [8]
  MIC80 C. albicans: — (none of the 5-acyl-2,4,6-pyrimidinetriones, 5-alkylated pyrimidinetriones or the 5,5-dialkylated pyrimidinetriones showed antifungal activity through 125 μg/mL)
[2]; [8]
  MIC80 C. glabrata: — (none of the 5-acyl-2,4,6-pyrimidinetriones, 5-alkylated pyrimidinetriones or the 5,5-dialkylated pyrimidinetriones showed antifungal activity through 125 μg/mL)

## CC(=Nc1ccc(O)cc1)C1C(=O)NC(=O)NC1=O [BA87]
[1]; [5]
  MIC80 C. albicans: — (none of the 5-acyl-2,4,6-pyrimidinetriones, 5-alkylated pyrimidinetriones or the 5,5-dialkylated pyrimidinetriones showed antifungal activity through 125 μg/mL)
[2]; [5]
  MIC80 C. glabrata: — (none of the 5-acyl-2,4,6-pyrimidinetriones, 5-alkylated pyrimidinetriones or the 5,5-dialkylated pyrimidinetriones showed antifungal activity through 125 μg/mL)
